For series [1] the following is noted: known; cited from earlier work.
In series [2] the test system is antinociception. The following applies: injected into the tails of mice; cited from earlier work.
Series [3] relates to bone pain from metastatic cancer. The following applies: patients suffering from bone pain from metastatic cancer; cited from earlier work.
Series [4] deals with bone resorption. The following applies: animal studies, cited from earlier work.
For series [5], the system named is axial mechanical pain of the spine. Kind of series: Axial spinal pain on a numerical scale after intravenous infusion in subjects with chronic spinal mechanical pain. The format is in vivo, human. The protocol: (§1) Three subjects, suffering from chronic daily (longer than 1 year) axial mechanical pain of the spine, were given approximately 1.2 mg per kg pamidronate as an intravenous infusion over 4 hours once a day for three consecutive days (total 3.6 mg/kg).
(§2) On the second day of infusion, 2 of the 3 subjects reported myalgias that responded well to anti-inflammatory (NSAID) agents. […] Assessments of axial spinal pain using a numerical scale (0=no pain; 10=the worst pain imaginable) were performed at baseline and at 1 month, 2 month, 4 month, and 6 month follow-up visits.

The nature of series [6]: Adverse effects in the infused subjects. In kind it is in vivo, human. Here is the method: as §1, §2
A short description of series [7]: Bone density of the infused subjects. The format is in vivo, human. The following applies: all three subjects. Here is the method: as §1
Assessments of axial spinal pain using a numerical scale (0=no pain; 10=the worst pain imaginable) were performed at baseline and at 1 month, 2 month, 4 month, and 6 month follow-up visits.

Setting [8] is: Subject 1, baseline 8, scale 0-10, 1.2 mg/kg iv once a day for 3 days.
Where [9] appears, read: Subject 2, baseline 8-9, scale 0-10, 1.2 mg/kg iv once a day for 3 days.
The mark [10] stands for this setting: Subject 3, baseline 5, scale 0-10, 1.2 mg/kg iv once a day for 3 days.

For `CC(=O)Nc1ccc(O)cc1` [acetaminophen], the “duration of analgesic effect” value in series [1] is “only a few hours”.

In the case of `CC(=O)Oc1ccccc1C(=O)O` [acetylsalicylic acid], the antinociceptive effect result in series [2] was “dose-dependent antinociception”.

Consider `NCCCC(O)(P(=O)(O)O)P(=O)(O)O` [alendronate], for which the antinociceptive effect result in series [2] is “analgesic effect only at the highest dose tested”.

As to `O=P(O)(O)C(Cl)(Cl)P(=O)(O)O` [clodronate], the antinociceptive effect result in series [2] is reported as “dose-dependent antinociception”.

For the molecule `CC(O)(P(=O)(O)O)P(=O)(O)O` [etidronate], the antinociceptive effect entry in series [2] is given as “analgesic effect only at the highest dose tested”.

Regarding `CC(C)Cc1ccc(C(C)C(=O)O)cc1` (centres unmarked) [ibuprofen], the “duration of analgesic effect” value in series [1] is “only a few hours”.

With `NCCC(O)(P(=O)(O)O)P(=O)(O)O` [pamidronate], the “longest reported duration of analgesic effect” value in series [3] is on record as 2-3 weeks. Besides, the antinociceptive effect result in series [2] is given as “dose-dependent antinociception”. In addition, in series [4] (doses recommended for the treatment of hypercalcemia), the “effect on bone resorption” value is “inhibits bone resorption apparently without inhibiting bone formation and mineralization”. In series [4], the “effect on accelerated bone resorption from osteoclast hyperactivity induced by various tumors” value was “inhibits the accelerated bone resorption”. The “use of opioid agents” value in series [5] (2 months from initiation of infusion therapy) is “all subjects discontinued the opioid agents”. In addition, the “pain status of all three subjects 6 months after the 3-day therapy” value in series [5] (6 months after therapy, all three subjects) is “pain free”. For the same molecule, the “axial spinal pain, numerical scale, 1 month” value came to 4 in series [5] (Subject 1 (DDD and osteopenia), baseline 8, 0=no pain, 10=worst pain imaginable, 1.2 mg/kg iv over 4 h once a day for 3 days); 5 in series [5] (Subject 2 (DDD and moderate osteoporosis), baseline 8-9, scale 0-10, 1.2 mg/kg iv once a day for 3 days); 0 in series [5] (Subject 3 (DDD), baseline 5, scale 0-10, 1.2 mg/kg iv once a day for 3 days). The “axial spinal pain, numerical scale, 2 months” value in series [5] (setting [8]), in series [5] (setting [9]) and in series [5] (setting [10]) was 0 in each case. Further, the “axial spinal pain, numerical scale, 4 months” value in series [5] (setting [8]), in series [5] (setting [9]) and in series [5] (setting [10]) was 0 throughout. Moreover, the “axial spinal pain, numerical scale, 6 months” value in series [5] (setting [8]), in series [5] (setting [9]) and in series [5] (setting [10]) was 0 each time. Further, in series [5] (iv treatment of chronic spinal mechanical pain), the “duration of pain relieving effects” value is recorded as at least 6 months. In series [6] (second day of infusion, responded well to NSAID agents), the subjects reporting myalgias was 2 of the 3. Moreover, the “hypocalcemia, cardiac, hepatic or renal impairments” value in series [6] (three subjects, 3.6 mg/kg total iv) is given as “did not exhibit any hypocalcemia, cardiac, hepatic or renal impairments”. In addition, the bone density change result in series [7] was “increase in their bone density”. The “bone density change at 6 months post-infusion” value in series [7] (6 months post-infusion) is listed as “increase in their bone density”.

The record behind these values is patent US8772267B2, “Treatment of spinal mechanical pain” (New York University, priority 2002, dated 2014).
